Data on one compound can be found in patent US6641841B2, “Tablet composition” (Ajinomoto Co., Inc., priority 1996, dated 2003).

SMILES strings stand for the structures.

Series [1] is described as follows: Bioavailability of compound [1] taken orally before or after a meal. The series is classed as in vivo.
Series [2] has as its system blood sugar level. The settings on record: taken orally; cited from earlier work.

On to `CC(C)[C@H]1CC[C@H](C(=O)N[C@H](Cc2ccccc2)C(=O)O)CC1` [compound [1], N-(trans-4-isopropylcyclohexanecarbonyl)-D-phenylalanine], for which, in series [1], the bioavailability result was “lowered”. The “effect of lowering the blood sugar level” value in series [2] is “excellent effect of lowering the blood sugar level”.
